# Patent US10174053B2, “2 substituted cephem compounds” (Glaxo Group Limited, priority 2012, dated 2019)
# Read-outs that look alike come from different tables or passages of the source.
# Experiments:
# Experiment in all cases: In vitro antimicrobial activity, MIC by broth microdilution (CLSI)
# Format in all cases: cell-based
# [1] = tested on: K. pneumoniae SR01358; settings: Klebsiella pneumoniae
# Method in brief: (§1)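 MIC (μg/mL) by CLSI broth microdilution, inoculum 5×10^5 cfu/mL, in cation-adjusted Iso-Sensitest broth containing human apo-transferrin.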
# [2] = tested on: A. baumannii JMI7; settings: Acinetobacter baumannii
# Method in brief: as §1
# [3] = tested on: E. Coli JMI1890; settings: Escherichia coli, read-out: Minimum Inhibitory Concentration (MIC) E. Coli JMI:1890
# Method in brief: as §1
# [4] = tested on: A. baumannii JMI2346; settings: Acinetobacter baumannii
# Method in brief: as §1
# [5] = SR01358, KPC-2, ESBL and KPC-type carbapenemase producing strain, 5×10^5 cfu/mL, cation-adjusted Iso-Sensitest broth containing human Apo-transferrin, read-out: Minimum Inhibitory Concentration (MIC) K. pneumoniae SR01358
# [6] = JMI7, PER-1, OXA-23, 51, ESBL and OXA-type carbapenemase producing strain, 5×10^5 cfu/mL, cation-adjusted Iso-Sensitest broth containing human Apo-transferrin, read-out: Minimum Inhibitory Concentration (MIC) A. baumannii JMI:7
# [7] = PER-1, TEM-1, ESBL producing strain, 5×10^5 cfu/mL, cation-adjusted Iso-Sensitest broth containing human Apo-transferrin
# [8] = JMI2346, OXA-51, TEM, ESBL and OXA-type carbapenemase producing strain, 5×10^5 cfu/mL, cation-adjusted Iso-Sensitest broth containing human Apo-transferrin, read-out: Minimum Inhibitory Concentration (MIC) A. baumannii JMI:2346
# [9] = SR01358, read-out: Minimum Inhibitory Concentration (MIC) K. pneumoniae SR01358
# [10] = JMI7, read-out: Minimum Inhibitory Concentration (MIC) A. baumannii JMI:7
# [11] = JMI2346, read-out: Minimum Inhibitory Concentration (MIC) A. baumannii JMI:2346
SMILES,"MIC [1, 5] [µg/mL]","MIC [2, 6] [µg/mL]","MIC [3, 7] [µg/mL]","MIC [4, 8] [µg/mL]","MIC [1, 9] [µg/mL]","MIC [2, 10] [µg/mL]",MIC [3] [µg/mL],"MIC [4, 11] [µg/mL]"
C[C@@H]1S[C@@H]2[C@H](NC(=O)/C(=N\OC(C)(C)C(=O)O)c3csc(N)n3)C(=O)N2C(C(=O)O)=C1C[N+]12CCC(CNC(=O)/C(=N\OC(C)(C)C(=O)[O-])c3ccc(O)c(O)c3Cl)(CC1)CC2 [Compound I-99],≤ 0.031,2,1,16,,,,
C[C@@H]1S[C@@H]2[C@H](NC(=O)/C(=N\OC(C)(C)C(=O)[O-])c3csc(N)n3)C(=O)N2C(C(=O)[O-])=C1C[N+]12CCC(Cn3[nH]c(=O)c4cc(O)c(O)cc4c3=O)(CC1)C2.[Na+] [Compound I-180],≤ 0.031,0.5,≤ 0.031,1,,,,
C[C@@H]1S[C@@H]2[C@H](NC(=O)/C(=N\OC(C)(C)C(=O)[O-])c3csc(N)n3)C(=O)N2C(C(=O)[O-])=C1C[N+]12CCC(CNC(=O)C(=O)c3ccc(O)c(O)c3Cl)(CC1)CC2.[Na+] [Compound I-3],≤ 0.031,0.5,0.5,2,,,,
CC[N+](CC)(CCNC(=O)c1ccc(O)c(O)c1Cl)CC1=C(C(=O)O)N2C(=O)[C@@H](NC(=O)/C(=N\OC(C)(C)C(=O)[O-])c3csc(N)n3)[C@H]2S[C@H]1C [Compound I-37],0.125,1,0.5,4,,,,
"C[C@@H]1S[C@@H]2[C@H](NC(=O)/C(=N\OC(C)(C)C(=O)[O-])c3csc(N)n3)C(=O)N2C(C(=O)[O-])=C1C[N+]12CCC(CNC(=O)c3c[nH]c4cc(O)c(O)c(Cl)c4c3=O)(CC1)CC2.[Na+] [Compound I-169, (4S,6R,7R)-7-((Z)-2-(2-aminothiazol-4-yl)-2-(((2-carboxypropan-2-yl)oxy)imino)acetamido)-3-((4-((5-chloro-6,7-dihydroxy-4-oxo-1,4-dihydroquinoline-3-carboxamido)methyl)quinuclidin-1-ium-1-yl)methyl)-4-methyl-8-oxo-5-thia-1-azabicyclo[4.2.0]oct-2-ene-2-carboxylate, Sodium salt]",≤ 0.031,0.25,0.063,0.5,,,,
C[C@@H]1S[C@@H]2[C@H](NC(=O)/C(=N\OC(C)(C)C(=O)[O-])c3csc(N)n3)C(=O)N2C(C(=O)O)=C1C[N+]12CCC(CC1)N(C(=O)C(=NO)c1cc(O)c(O)c(Cl)c1)CC2 [Compound I-138],,,,,≤ 0.031,0.5,0.25,4
CO/N=C(\C(=O)NCC12CC[N+](CC3=C(C(=O)O)N4C(=O)[C@@H](NC(=O)/C(=N\OC(C)(C)C(=O)[O-])c5csc(N)n5)[C@H]4S[C@H]3C)(CC1)C2)c1ccc(O)c(O)c1Cl [Compound I-104],≤ 0.031,1,0.125,1,,,,
"C[C@@H]1S[C@@H]2[C@H](NC(=O)/C(=N\OC(C)(C)C(=O)O)c3csc(N)n3)C(=O)N2C(C(=O)[O-])=C1C[N+]12CCC(Cn3cnc4cc(O)c(O)c(Cl)c4c3=O)(CC1)CC2 [Compound I-161, (4S,6R,7R)-7-((Z)-2-(2-aminothiazol-4-yl)-2-(((2-carboxypropan-2-yl)oxy)imino)acetamido)-3-((4-((5-chloro-6,7-dihydroxy-4-oxoquinazolin-3(4H)-yl)methyl)quinuclidin-1-ium-1-yl)methyl)-4-methyl-8-oxo-5-thia-1-azabicyclo[4.2.0]oct-2-ene-2-carboxylate]",≤ 0.031,0.25,0.125,4,,,,
C[C@@H]1S[C@@H]2[C@H](NC(=O)/C(=N\OC(C)(C)C(=O)[O-])c3csc(N)n3)C(=O)N2C(C(=O)O)=C1C[N@+]1(C)[C@@H]2CC[C@H]1C[C@@H](NC(=O)C(=O)c1ccc(O)c(O)c1Cl)C2 [Compound I-20],,,,,≤ 0.031,0.125,0.063,0.5
C[C@@H]1S[C@@H]2[C@H](NC(=O)/C(=N\OC(C)(C)C(=O)[O-])c3csc(N)n3)C(=O)N2C(C(=O)[O-])=C1C[N+]1(C)[C@@H]2CC[C@H]1C[C@@H](NC(=O)c1cc(O)c(O)c(Cl)c1)C2.[Na+] (some centres unmarked) [Compound I-66],≤ 0.031,0.25,0.063,1,,,,
CC[N+](CC)(CCN1C(=O)c2ccc(O)c(O)c2C1=O)CC1=C(C(=O)O)N2C(=O)[C@@H](NC(=O)/C(=N\OC(C)(C)C(=O)[O-])c3csc(N)n3)[C@H]2S[C@H]1C [Compound I-36],0.125,0.5,0.5,4,,,,
C[C@@H]1S[C@@H]2[C@H](NC(=O)/C(=N\OC(C)(C)C(=O)[O-])c3csc(N)n3)C(=O)N2C(C(=O)[O-])=C1C[N+]12CCC[C@H]1CN(C(=O)c1cc(O)c(O)c(Cl)c1)CC2.[Na+] (some centres unmarked) [Compound I-64],≤ 0.031,2,0.125,4,,,,
C[C@@H]1S[C@@H]2[C@H](NC(=O)/C(=N\OC(C)(C)C(=O)[O-])c3csc(N)n3)C(=O)N2C(C(=O)O)=C1C[N@+]1(C)[C@@H]2CC[C@H]1C[C@@H](N1C(=O)c3ccc(O)c(O)c3C1=O)C2 [Compound I-38],,,,,0.063,0.25,0.25,0.5
C[C@@H]1S[C@@H]2[C@H](NC(=O)/C(=N\OC(C)(C)C(=O)[O-])c3csc(N)n3)C(=O)N2C(C(=O)[O-])=C1C[N+]1(CCNC(=O)C(=O)c2ccc(O)c(O)c2)CCCC1.[Na+] [Compound I-109],0.063,1,0.5,8,,,,
"C[C@@H]1S[C@@H]2[C@H](NC(=O)/C(=N\OC(C)(C)C(=O)[O-])c3csc(N)n3)C(=O)N2C(C(=O)[O-])=C1C[N+]12CCC(CC1)N(C(=O)c1c[nH]c3cc(O)c(O)c(Cl)c3c1=O)CC2.[Na+] [Compound I-177, (4S,6R,7R)-7-((Z)-2-(2-aminothiazol-4-yl)-2-(((2-carboxypropan-2-yl)oxy)imino)acetamido)-3-((4-(5-chloro-6,7-dihydroxy-4-oxo-1,4-dihydroquinoline-3-carbonyl)-1,4-diazabicyclo[3.2.2]nonan-1-ium-1-yl)methyl)-4-methyl-8-oxo-5-thia-1-azabicyclo [4.2.0]oct-2-ene-2-carboxylate, Sodium salt]",≤ 0.031,0.25,0.063,0.5,,,,
C[C@@H]1S[C@@H]2[C@H](NC(=O)/C(=N\OC(C)(C)C(=O)[O-])c3csc(N)n3)C(=O)N2C(C(=O)O)=C1C[N+]12CCC(CNC(=O)/C(=N\OCC(=O)O)c3ccc(O)c(O)c3Cl)(CC1)C2 [Compound I-101],≤ 0.031,0.25,0.063,0.5,,,,
C[C@@H]1S[C@@H]2[C@H](NC(=O)/C(=N\OC(C)(C)C(=O)[O-])c3csc(N)n3)C(=O)N2C(C(=O)O)=C1C[N+]1(CCNC(=O)c2ccc(O)c(O)c2Cl)CCCC1 [Compound I-52],≤ 0.031,1,0.25,4,,,,
C[C@@H]1S[C@@H]2[C@H](NC(=O)/C(=N\OC(C)(C)C(=O)[O-])c3csc(N)n3)C(=O)N2C(C(=O)[O-])=C1C[N+]1(CCNC(=O)C(=O)c2ccc(O)c(O)c2Cl)CCCC1.[Na+] [Compound I-74],≤ 0.031,0.25,0.25,4,,,,
C[C@@H]1S[C@@H]2[C@H](NC(=O)/C(=N\OC(C)(C)C(=O)[O-])c3csc(N)n3)C(=O)N2C(C(=O)[O-])=C1C[N+]12CCC(CN3C(=O)c4cc(O)c(O)cc4C3=O)(CC1)CC2.[Na+] [Compound I-73],≤ 0.031,0.25,0.063,2,,,,
C[C@@H]1S[C@@H]2[C@H](NC(=O)/C(=N\OC(C)(C)C(=O)[O-])c3csc(N)n3)C(=O)N2C(C(=O)[O-])=C1C[N+]12CCC(CNC(=O)c3cc(O)c(O)c(Cl)c3)(CC1)CC2.[Na+] [Compound I-60],≤ 0.031,1,1,4,,,,
